Our source for the MIC values is ChEMBL document CHEMBL1154173, “L-proline-catalysed facile green protocol for the synthesis and antimycobacterial evaluation of [1,4]-thiazines” (2009).

In brackets after ≈: the same amount, converted by molar mass.

The subject of the experiment is Mycobacterium tuberculosis. As to the kind of experiment: Antimycobacterial activity against multidrug resistant Mycobacterium tuberculosis by agar dilution method. The experiment is classed as functional. A general note: In agar dilution, organisms are placed on agar that contains the substance at set levels.
One may read the MIC as the least concentration at which growth counts as inhibited. In the case of `CC[C@@H](CO)NCCN[C@@H](CC)CO` [ETHAMBUTOL], the MIC was 61.2 µM (≈ 12.5 µg/mL).
With `NNC(=O)c1ccncc1` [ISONIAZID] the figure was 45.6 µM (≈ 6.25 µg/mL); with `CCOC(=O)C1C(c2ccc(C)cc2)NC(c2ccc(C)cc2)C(C(=O)c2ccc(Cl)cc2)S1(=O)=O` (racemic), 1.48 µM (≈ 0.779 µg/mL).
The figure for `CCOC(=O)C1C(c2ccc(Cl)cc2)NC(c2ccc(Cl)cc2)C(C(=O)c2ccc(Cl)cc2)S1(=O)=O` (racemic) is 5.52 µM (≈ 3.13 µg/mL); for `NC(=O)c1cnccn1` [PYRAZINAMIDE] it is 406 µM (≈ 50 µg/mL).
For `CCOC(=O)C1C(c2ccc(OC)cc2)NC(c2ccc(OC)cc2)C(C(=O)c2ccc(Cl)cc2)S1(=O)=O` (racemic), 1.4 µM (≈ 0.781 µg/mL) was the least that counted as inhibitory (MIC).
With `CCOC(=O)C1C(c2ccc([N+](=O)[O-])cc2)NC(c2ccc([N+](=O)[O-])cc2)C(C(=O)c2ccc(Cl)cc2)S1(=O)=O` (racemic) the figure was 0.68 µM (≈ 0.4 µg/mL); with `CO[C@H]1/C=C/O[C@@]2(C)Oc3c(C)c(O)c4c(O)c(c(/C=N/N5CCN(C)CC5)c(O)c4c3C2=O)NC(=O)/C(C)=C\C=C\[C@H](C)[C@H](O)[C@@H](C)[C@@H](O)[C@@H](C)[C@H](OC(C)=O)[C@@H]1C` [RIFAMPIN], 3.8 µM (≈ 3.13 µg/mL).
